According to patent US8044201B2, “Stem cell cultures” (The Scripps Research Institute, priority 2008, dated 2011):
“Also recorded” adds a separate entry of the source.

Columns and labels:
[1] = test system: hESCs; assay: ALP positive colony formation by dissociated hESCs (clonal / low-density survival assay); assay type: cell-based, human; settings: PKC agonist treatment
Experimental: (§1) Human ESC lines H1, HUES7 and HUES9 were cultured on irradiated MEF feeder cells in DMEM-F12 supplemented with 2 mM L-glutamine, 1× nonessential amino acids, 20% serum replacement (Invitrogen) and 10 ng/ml basic Fibroblast growth factor (Invitrogen). Chemically-defined and feeder-free hESC culture was described previously (Yao, S. et al., Proc Natl Acad Sci USA 103 (18):6907-6912 (2006)). Briefly, hESCs were grown on Matrigel-coated tissue culture plates in N2B27-CDM (DMEM-F12 supplemented with 1× N2 supplements, 1× B27 supplements, 2 mM L-glutamine, 0.11 mM 2-mercaptoethanol, 1× nonessential amino acids, and 0.5 mg/ml BSA (fraction V)) and 20 ng/ml bFGF. Human ESCs were passaged every 5-6 days with 0.05% trypsin.
For clonal survival assays, single hESCs were diluted to clonal density and plated onto 96-well Matrigel-coated plate. For low-density survival assays, 500 cells were plated onto 96-well Matrigel-coated plate. To visualize hESC colonies, cultures were fixed in 4% paraformaldehyde in PBS for 5 min, washed once in PBS, then stained for alkaline phosphatase activity as described in manufacturer's instructions. ALP positive colonies were counted on an inverted microscope.

[2] = test system: hESCs; assay: Cell adhesion assay of dissociated hESCs; assay type: cell-based, human
Experimental: Cell adhesion assays were performed in 96-well microtiter plates coated with Matrigel. After trypsin, hESCs were resuspended in the chemically-defined media containing the desired compounds. Cells were then added to the microtiter wells and incubated for 3 h at 37° C. Unbound and loosely bound cells were removed by shaking and washing, and the remaining cells were then fixed immediately. The wells were washed 3 times with 200 μl of H2O, and attached cells were stained with Crystal Violet (Sigma). The absorbance of each well at 570 nm was then measured. For experiments with blocking antibodies, cells were pre-incubated with antibodies on ice for 30 min, and adhesion assays were performed in the presence of antibodies. Each sample was assayed independently for three times.

[3] = test system: β1 integrin; assay: Active conformation of β1 integrin in hESCs (HUTS-21 binding, flow cytometry and immunostaining); assay type: cell-based, human; settings: for level of HUTS-21 binding (activated β1 integrin): trypsin-dissociated hESCs
From the text: To gain insights into the mechanism of β1 integrin regulation by Tzv and Ptn, we investigated whether the compounds' effect is due to changes of integrin expression. In contrast to E-cadherin, β1 integrin was not cleaved by trypsin. […] Thus, Tzv and Ptn are likely to affect cell adhesion by modulating integrin activity (FIGS. 3d,e). To examine the effects of compound treatment on the activity of β1 integrin, we used the monoclonal antibody HUTS-21, which specifically binds to the activated form of the β1 integrin (Luque, A. et al., J Biol Chem 271 (19):11067-11075 (1996)).
(§2) To assess the expression of E-cadherin, activated integrin and SSEA4, dissociated cells (3×10^5) were washed with PBS and resuspended in PBS containing 2% goat serum. Cells were then incubated with the appropriate antibody for 1 h at 4° C., washed with the blocking solution, and labeled with FITC-conjugated secondary antibody for 30 min at 4° C. Cells were then washed and analyzed on a FACS Calibur flow cytometer.

[4] = test system: hESCs; assay: Long-term serial passage of hESCs in Tzv or Ptn-containing chemically-defined medium (morphology, pluripotency markers, karyotype); assay type: cell-based, human; settings: serially passaged for more than 20 generations in compound-containing chemically-defined medium
Experimental: as §1
Immunostaining was performed as described previously (Yao, S. et al., Proc Natl Acad Sci USA 103 (18):6907-6912 (2006)). Briefly, cells were fixed with 4% paraformaldehyde at room temperature (RT) for 15 min. The cells were then incubated at RT in blocking buffer for 1 hour. […]
Teratoma formation experiments were performed by injecting 3-5 million hESCs (maintained in the presence of compounds Tvz or Ptn) under the kidney capsule of nude mice. After 4-5 weeks, all mice developed teratomas, which were removed and then immunohistologically analyzed by The Scripps Research Institute Research Histology Service and Animal Resources. […]

[5] = test system: ERK and AKT; assay: Western blot of ERK and AKT phosphorylation in dissociated hESCs; assay type: cell-based, human
[6] = test system: hESCs; assay: Cell death / survival analysis of dissociated hESCs in adherent (Matrigel) or suspension culture; assay type: cell-based, human; settings: for survival of dissociated hESCs in adherent culture: Matrigel-coated plate; for survival of dissociated hESCs in adherent culture / survival of dissociated hESCs in suspension culture: 2 μM
Experimental: as §1
The hESCs under different treatments were dissociated by trypsin and fixed by 4% paraformaldehyde. And the staining was carried out according to the manufacturer's instructions (MBL Laboratories, Watertown, Mass.). After staining, samples were analysed by flow cytometry using a FACS Calibur flow cytometer (BD).

[7] = test system: epithelial to mesenchymal transition/EMT; assay: Epithelial to mesenchymal transition (EMT) / MET; assay type: cell-based
[8] = test system: growth factor receptor; assay: Western blot of growth factor receptor phosphorylation in hESCs; assay type: cell-based, human; settings: hESCs treated for 2 h, DMSO control
[9] = test system: human embryonic stem cell, mouse embryonic stem cell, multiple neural stem cells, skin stem cells, mesenchymal stem cells, hematopoietic stem cells, stromal …; assay: Survival and anti-differentiation of stem cells ex vivo after isolation; assay type: cell-based; settings: contacted immediately after isolation of the cells
From the text: In some embodiments, the invention provides methods of promoting survival and anti-differentiation in stem cells ex-vivo.

[10] = test system: E-cadherin; assay: E-cadherin level in hESCs after trypsin dissociation (Western blot, flow cytometry, semiquantitative RT-PCR); assay type: cell-based, human
Experimental: as §2

[11] = test system: primary human pancreatic islets/beta cells; assay: Cell death of dispersed primary pancreatic islets/beta cells plated as single cells on matrigel or laminin; assay type: cell-based; settings: 1-2 mM added to the media
Experimental: For example, the inventors dispersed primary human pancreatic islets/beta cells plated as single cells onto a tissue culture plate that was coated with matrigel or laminin. […] Accordingly, in some embodiments, a compound of the present invention is administered to an individual in need of pancreatic beta and/or islet cells, wherein administration of the compound results in an increase in the number of beta or islet cells in the individual.

[12] = test system: mouse P1 cortical explants; assay: Neurite / axon outgrowth from cortical explants; assay type: cell-based
Experimental: Compounds of formula I and III (i.e., Tvz and Ptn) are effective at promoting axonal regeneration and functional recovery in injured central nervous system. […] Tzv (3 μM) was tested on mouse P1 cortical explants, with axon outgrowth as an outcome read-out. Tzv was added to the medium 20 minutes after plating, with DMSO as a control. […] Accordingly, in some embodiments, a compound of the present invention is administered to an individual having a central nervous system injury or who is in need or would otherwise benefit from axonal regeneration.

[13] = test system: E-cadherins to EGFR1 and ERB2; assay: Immunoprecipitation of E-cadherins with EGFR1 and ERB2 in hESCs; assay type: cell-based, human
From the text: ALP detection kit and integrin antibodies were from Chemicon. AG825 (Erb2 inhibitor), AG1478 (EGFR inhibitor), PPP (IGFR1 inhibitor) were purchased from Calbiochem. Antibodies raised against the intracytoplasmic tail of E-cadherins (Transduction Laboratories, Lexington, Ky.) were used for immunoprecipitation. The antibody TS2/16 was from Pierce. Antibodies to the extracellular domain of E-cadherin molecule were from Zymed (Carlsbad). Antibodies against extracellular signal-regulated kinase/MAPK, EGFR1, ERB2, GADPH and phosphorylated form of AKT were from Cell Signaling. Mouse monoclonal anti-phosphotyrosine (4G-10 clone) was from Upstate Biotechnology. Ptn and Tzv were added to culture medium at 2 μM.

| SMILES | maintenance of hESC morphology, pluripotency markers and karyotype [4] | survival of dissociated hESCs in adherent culture [6] | survival of dissociated hESCs in suspension culture [6] | adhesion of dissociated hESCs to Matrigel or laminin [2] | adhesion of hESCs to gelatin or poly-lysine [2] | induction of MET and inhibition of EMT [7] | level of HUTS-21 binding (activated β1 integrin) [3] | survival and anti-differentiation of stem cells [9] | also measured |
| --- | --- | --- | --- | --- | --- | --- | --- | --- | --- |
| CCCCCCCCCCCCCC(=O)O[C@@H]1[C@@H](C)[C@@]2(O)[C@@H](C=C(CO)C[C@]3(O)C(=O)C(C)=C[C@@H]23)[C@@H]2C(C)(C)[C@]12OC(C)=O [PMA, phorbol 12-myristate 13-acetate, reference compound] | – | – | – | – | – | – | – | – | colony formation of dissociated hESCs [1]: substantial increase; cell adhesion of dissociated hESCs ([2]; PKC agonist treatment): substantial increase; integrin activation ([3]; dissociated hESCs, PMA 10 nM (FIG. 3k)): integrin activation |
| O=S(=O)(NCC1CC1)c1ccc(Nc2nccc(N3CCCc4cc(O)ccc43)n2)cc1 [Ptn, N-(cyclopropylmethyl)-4-(4-(6-hydroxy-3,4-dihydroquinolin-1(2H)-yl)pyrimidin-2-ylamino)benzenesulfonamide] | maintained the characteristic morphology of hESCs, the expression of typical pluripotency markers, and normal karyotype | promoted survival; also recorded: dramatic effect on survival | no effect | dramatically increased adhesion | not affected | induce MET (the reverse of EMT) and inhibit EMT | increased | effective in promoting survival and anti-differentiation | phosphorylation of ERK and AKT [5]: increased; phosphorylation of growth factor receptor [8]: significantly increased |
| O=C(NCc1ccccc1)c1csc(Nc2ccncn2)n1 [Tzv, N-benzyl-2-(pyrimidin-4-ylamino)thiazole-4-carboxamide] | maintained the characteristic morphology of hESCs, the expression of typical pluripotency markers, and normal karyotype | greatly improved survival; also recorded: dramatic effect on survival | greatly improved survival | dramatically increased adhesion | not affected | induce MET (the reverse of EMT) and inhibit EMT | increased | effective in promoting survival and anti-differentiation | full-length E-cadherin expression (Western blot) ([10]; hESCs after trypsin dissociation): significantly increased; cell surface E-cadherins (flow cytometry) ([10]; hESCs after trypsin treatment): significantly increased; E-cadherin transcripts (semiquantitative RT-PCR) ([10]; vs mock controls): comparable amounts; cell death of pancreatic islets/beta cells [11]: cell death was inhibited; cell aggregate formation in suspension ([6]; hESCs grown in suspension): formed nice cell aggregates; axon outgrowth ([12]; 3 μM, added 20 minutes after plating, observed 4 days, DMSO control): dramatic effect in promoting axon outgrowth; neurite outgrowth from primary neuronal cells ([12]; primary neuronal cells from mice): promote neurite outgrowth; binding of E-cadherins to EGFR1 and ERB2 [13]: induced binding |
| CN(C)CCCn1cc(C2=C(c3c[nH]c4ccccc34)C(=O)NC2=O)c2ccccc21 [bisindolylmaleimide I, reference compound] | – | – | – | – | – | – | – | – | effect on increased cell adhesion induced by Ptn ([2]; in combination with Ptn): antagonize; effect on cell adhesion induced by Tzv ([2]; in combination with Tzv): no effect |
